The molecules below were run against T1, Corticotropin-releasing factor receptor 1 (Homo sapiens, UniProt P34998) (assay: Binding affinity for transfected human Corticotropin releasing factor receptor expressed in HEK 293E cells using [125I]TYR-oCRH as the displaced radioligand).
T1 sequence (P34998 whole entry): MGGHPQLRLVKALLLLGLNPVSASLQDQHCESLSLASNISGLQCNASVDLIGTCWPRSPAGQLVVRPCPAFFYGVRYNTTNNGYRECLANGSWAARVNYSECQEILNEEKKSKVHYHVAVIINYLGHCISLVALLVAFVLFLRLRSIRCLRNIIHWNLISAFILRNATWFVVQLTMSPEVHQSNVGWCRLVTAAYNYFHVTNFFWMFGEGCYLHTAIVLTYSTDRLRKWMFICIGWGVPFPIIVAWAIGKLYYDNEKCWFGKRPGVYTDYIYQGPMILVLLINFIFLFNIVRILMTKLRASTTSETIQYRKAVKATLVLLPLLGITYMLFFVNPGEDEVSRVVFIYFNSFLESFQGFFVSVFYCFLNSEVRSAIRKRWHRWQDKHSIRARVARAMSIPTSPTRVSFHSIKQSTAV
Format: cell-based, HEK293

Point of comparison: `COCCN(Cc1ccccc1)c1nc(C)nc2c1n(C)c(=O)n2-c1ccc(C(C)C)cc1Br`, Ki 26.2 nM. Against it:
- CCCCN(CC)c1cc(C)nc2c1n(C)c(=O)n2-c1ccc(C(C)C)cc1Br — 8.7-fold lower, 3 nM
- COCCN(CC1CC1)c1nc(C)nc2c1n(C)c(=O)n2-c1ccc(C(C)C)cc1Br — 2.1-fold lower, 12.2 nM
- COCCN(CCOC)c1nc(C)nc2c1n(C)c(=O)n2-c1ccc(C(C)C)cc1Br — 5-fold higher, 130 nM
- CCN(CCOC)c1nc(C)nc2c1n(C)c(=O)n2-c1ccc(C(C)C)cc1Br — 1.8-fold higher, 47.9 nM
- CCCCN(CC)c1nc(C)nc2c1n(C)c(=O)n2-c1c(C)cc(C)nc1C — 4.7-fold higher, 124 nM
- CCCN(CC1CC1)c1nc(C)nc2c1n(C)c(=O)n2-c1c(C)cc(C)nc1C — 4.3-fold higher, 113 nM
- CCCN(CCC)c1nc(C)nc2c1n(C)c(=O)n2-c1c(C)cc(C)nc1C — 9.9-fold higher, 259 nM
- CCCCN(CC)c1nc(C)nc2c1n(CC1CC1)c(=O)n2-c1ccc(C(C)C)cc1Br — 4.5-fold higher, 117 nM
- CCCCN(CC)c1nc(C)cc2c1n(C)c(=O)n2-c1ccc(C(C)C)cc1Br — 18-fold higher, 463 nM
- COCCN(CCOC)c1nc(C)nc2c1n(C)c(=O)n2-c1c(C)cc(C)cc1C — 27-fold higher, 698 nM
- CCC(COC)Nc1nc(C)nc2c1n(C)c(=O)n2-c1ccc(C(C)C)cc1Br (configuration not stated) — 1.6-fold higher, 42.8 nM
- CCCCC(CC)Nc1nc(C)nc2c1n(C)c(=O)n2-c1ccc(C(C)C)cc1Br (configuration not stated) — 1.7-fold lower, 15.1 nM
- CCCCN(CC)c1nc(C)nc2c1nc(OCC1CC1)n2-c1ccc(C(C)C)cc1Br — within 1.5-fold, 31.1 nM
- CCCCN(CC)c1nc(C)nc2c1nc(N1CCOCC1)n2-c1ccc(C(C)C)cc1Br — 13-fold higher, 345 nM
- CCCCN(CC)c1nc(C)nc2c1nc(OC)n2-c1ccc(C(C)C)cc1Br — 17-fold lower, 1.5 nM
- CCCCN(CC)c1nc(C)nc2c1nc(Cl)n2-c1ccc(C(C)C)cc1Br — 17-fold lower, 1.5 nM
- CCCCC(CC)Nc1nc(C)nc2c1n(C)c(=O)n2-c1c(C)cc(C)cc1C (configuration not stated) — 1.5-fold lower, 17.4 nM
- CCCN(CC1CC1)c1nc(C)nc2c1n(C)c(=O)n2-c1c(C)cc(C)cc1C — 4.3-fold lower, 6.1 nM
- CCCCN(CC)c1nc(C)nc2c1nc(O)n2-c1ccc(C(C)C)cc1Br — 34-fold higher, 890 nM
- CCCN(CCC)c1nc(C)nc2c1n(C)c(=O)n2-c1ccc(C(C)C)cc1Br — 3.4-fold lower, 7.6 nM
- CCCN(CC1CC1)c1nc(C)nc2c1n(C)c(=O)n2-c1ccc(C(C)C)cc1Br — 4.6-fold lower, 5.7 nM

From ChEMBL document CHEMBL1131668, “Purin-8-ones as corticotropin-releasing hormone (CRH-R1) receptor antagonists” (Bioorg Med Chem Lett, 1999)
